In patent US5837839A, “DNA coding sequences for mevalonate Pyrophosphate decarboxylase” (Novartis Finance Corporation, priority 1996, dated 1998):

Legend:
[1] = tested on: chicken liver MPD (mevalonate pyrophosphate decarboxylase); details: pseudo-first order kinetics; ATP and MevPP protect against inactivation; cited from earlier work
[2] = target: T1, partially purified human liver MPD (mevalonate pyrophosphate decarboxylase) (Homo sapiens, UniProt P53602); assay: Inhibition of partially purified human liver MPD by phenylglyoxal; assay type: biochemical; details: partially purified enzyme; no concentration stated
T1 construct: from tissue; host or cells: human liver
T1 sequence (P53602 1-400): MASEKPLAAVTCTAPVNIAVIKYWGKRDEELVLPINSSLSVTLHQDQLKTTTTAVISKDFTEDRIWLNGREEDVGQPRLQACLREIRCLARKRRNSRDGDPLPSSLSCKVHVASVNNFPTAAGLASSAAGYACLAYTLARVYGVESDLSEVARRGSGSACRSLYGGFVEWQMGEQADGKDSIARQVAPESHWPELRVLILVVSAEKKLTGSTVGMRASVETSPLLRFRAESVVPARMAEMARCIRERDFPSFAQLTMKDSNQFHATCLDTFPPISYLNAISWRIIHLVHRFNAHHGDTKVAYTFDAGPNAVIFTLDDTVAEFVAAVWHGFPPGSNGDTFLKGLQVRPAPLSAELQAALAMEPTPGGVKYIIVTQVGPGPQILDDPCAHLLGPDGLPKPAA
Description: This agrees with the work of Jabalquinto et al., (1983) Arch. Biochem. Biophys. […] They concluded that a single arginine is near the binding site of ATP and MevPP in the chicken liver enzyme. To this end, the Arg27Lys and Arg153Lys mutants were made using the AAA lysine codon triplet and a single-stranded DNA template isolated from pO-3. These mutated cDNAs were subcloned into pET14-b and expressed like p11-4 as described above. […] The Arg27Lys mutant appears to produce lower activity compared to the parent plasmid ([…]) from which it was derived, but this may not be a significant difference. […] Antisera against MPD for the Westerns was made with material expressed in E. coli from plasmid p11-4.
Cell pellets from the various expression systems were sonicated in homogenization buffer (20 mM Tris/HCl pH 7.5, 15 mM EDTA, 15 mM EGTA, 100 μM Leupeptin, 0.75 mg/l Aprotinin, 0.1 mM PMSF) and assayed directly for enzyme activity and protein concentration. Activity was measured as the conversion of labelled mevalonate pyrophosphate into isopentenyl pyrophosphate. […] 2 ml of Econofluor-2 (New England Nuclear) was added to the assay mixture the sample was capped, shaken, and counted on a scintillation counter. Because of the organic nature of the scintillation fluid, dephosphorylated product (isopentenyl) is solubilized and counted whereas dephosphorylated substrate (mevalonic acid) is not. […]

inhibition of MPD [2]: inhibited
Compound: O=CC(=O)c1ccccc1 [phenylgloxal]
inactivation of MPD [1]: inactivated
